Data taken from US20130150430A1, “Methods for Impairing the P53/HDM2 Auto-Regulatory Loop in Multiple Myeloma Development Using mIR-192, mIR-194 and mIR-215” (THE OHIO STATE UNIVERSITY, priority 2011, published 2013).

Tested on: miR-192 and miR-194 in WT TP53 MM cell lines
Experiment: qRT-PCR of miRNAs after demethylation agent
Format: cell-based, human
Settings: 10 μM, 3 days, vs DMSO

`Nc1ncn([C@@H]2O[C@H](CO)[C@@H](O)[C@H]2O)c(=O)n1` [Azacytidine] was tested, and the “expression of miR-194-2-192 cluster miRNAs” value was “increased”.
